Key:
wild-type C. elegans = assay: C. elegans lifespan assay; type: in vivo, Caenorhabditis elegans; settings: ANM 10 μM or RES 438 μM vs control
Method: It has been well documented that high glucose levels decrease the life span of C. elegans by increasing ROS formation and advance glycation end-product modification of mitochondrial proteins. Therefore, it is further investigated whether ANM has a protective effect against hyperglycemia-induced oxidative stress as well as anti-aging effects. Worms are incubated with high glucose (50 mM) with or without ANM […], and controlled for life span evaluation. In FIG. 8B, effect of ANM on the life span of C. elegans under hyperglycemic condition is examined. Age synchronized L1 larvae are transfected to NGM plates which contain HG (50 mM) with or without ANM (10 μM) and worms are developed to adulthood. The survival rate is scored everyday and is expressed as a percentage of survival. […] Results are expressed as mean±S.E.M of three independent experiments. Statistical significance is set at ^ϕP<0.05 as compared to control vs. HG, *P<0.05 as compared to HG vs. HG+sample and ̂P<0.05 as compared to control vs. samples.
Control worms are treated with 0.01% DMSO. All worms are kept 20° C. to develop adulthood. After 6 days, worms are transferred to plates containing glucose are applicable. Surviving and dead animals are counted daily (starting from the first day of adulthood) until all worms had died. […] Worms suffering from internal hatch (a defect in egg-laying) and those that crawled off the NGM plate are not included in the life-span assay. During the reproductive period, adult worms are transferred to fresh NGM plates every day during the progeny production period and then every other day thereafter. Life span assay result is obtained from three independent assays.

SIRT-1, SIRT-3, SIRT-6 = assay: Western blot of SIRT proteins and phos-SIRT-1 in HNDFs; type: cell-based, human; settings: ANM or RES + HG, 72 h
Method: Total cell lysate is extracted and subjected to western blot analysis to monitor SIRT-1, SIRT-3, SIRT-6 protein levels.
The protein expression levels of SIRT-1, SIRT-6, p21^CIP1, SMP30, p53, FoxO and acetylation of p53 and FoxO1 are determined by western blot analysis.
To further understand the regulation of SIRT-1 by ANM, the effect of ANM on SIRT-1 activation and protein stability is examined under hyperglycemic conditions. In FIG. 7I, cells are incubated with JNK/SAPK or p38 MAPK inhibitors SP600125 (SP, 30 μM) and SB203580 (SB, 30 μM) in the presence of HG for 72 h. The protein expression levels of phos-SIRT-1 and SIRT-1 are determined by western blotting. Results are expressed as mean±S.E.M of three independent experiments. Statistical significance is set at ^ϕP<0.05 as compared to NG vs. HG and *P<0.05 as compared to HG vs. samples. Previous studies have shown that hyperphosphorylation of SIRT-1 at serine 47 (Ser47) is correlated with enhanced endothelial senescence. In addition, persistent activation of JNK1/2 by multiple factors including hyperglycemia induces extensive SIRT-1 proteasome degradation followed by phosphorylation at Ser47. […] Therefore, it is hypothesized that ANM-mediated suppression of JNK1/2 and p38 MAPK activation may have a functional role in the stability of SIRT-1 protein.
(§1) Cells are lysed by either RIPA lysis buffer or nuclear and cytoplasmic extraction reagents (Thermo Fisher Scientific). Protein concentrations are determined by Bio-Rad protein assay reagent (Bio-Rad Laboratories, Hercules, Calif.). Equal amounts of protein samples (60 μg) are separated by 7-12% SDS-PAGE and the separated proteins are transferred onto polyvinylidene […] (PVDC) membrane overnight. The transferred protein membranes are blocked with 5% non-fat dried milk for 30 min, followed by incubation with specific primary antibodies overnight, and either horseradish peroxidase-conjugated goat anti-rabbit or anti-mouse antibodies for 2 h. The blots are detected using VL Chemi-Smart 3000 (Viogene Biotek, Sunnyvale, Calif.) with the enhanced chemiluminescence (ECL) western blotting reagent (Millipore, Billerica, Mass.).

HO-1 and NQO-1 = assay: Western blot of HO-1 and NQO-1 in HUVECs; type: cell-based, human; settings: ANM 10 μM or RES 5 μM + HG
Method: The intracellular ROS level is quantified by utilizing DCFH-DA assay. […] However, treatment of HUVECs with ANM resulted reduced ROS levels (6.1-fold), compared with HUVECs in HG that are not treated with ANM. In addition, in FIG. 9G, western blot analysis is performed to determine the protein expression levels of HO-1 and NQO-1.
as §1

[1] = system: SIRT-1, SIRT-3 and SIRT-6; assay: RT-PCR/Q-PCR of SIRT genes in HNDFs; type: cell-based, human; settings: RES, 72 h, no HG
From the text: As shown in the figures, to determine whether ANM regulates HNDF senescence through a SIRT-1-mediated pathway, expression levels of SIRT genes SIRT-1, SIRT-3 and SIRT-6 are is examined.
Total RNA is extracted and subjected to Q-PCR analysis to monitor SIRT-1, SIRT-3 and SIRT-6 expression. Relative mRNA levels are normalized by β-actin mRNA. Previous studies have shown that exposure of endothelial cells to HG rapidly decreases levels of expression of SIRT genes.
Total RNA is extracted from cultured HNDFs using Trizol Reagent (Thermo Fisher Scientific). Q-PCR analysis is performed using Applied Biosystems detection instruments and software. Forward and reverse primers (10 μM), and the working solution SYBR green, is used as a PCR master mix, under the following conditions: 96° C. for 3 minutes followed by 40 cycles at 96° C. for 1 minute, 50° C. for 30 seconds and 72° C. for 90 seconds. GAPDH is used as an internal standard to control for variability in amplification because of differences in starting mRNA concentrations. The copy number of each transcript is calculated as the relative copy number normalized by GAPDH copy number.

HNDFs = assay: SA-β-gal senescence assay in HG-induced HNDFs; type: cell-based, human; settings: ANM 10 μM or RES + HG, 72 h
Method: Next, the protective effects of antcins on HG-induced HNDF senescence are examined. In FIG. 2B, cells were incubated with ANA (10 μM), ANH (10 μM) and ANM (10 μM) in the presence of HG (30 mM) for 72 h. Cellular senescence is determined by SA-β-gal activity. […] After cells are co-incubated with HG and antcins (ANA, ANH and ANM) for 72 h, senescence is measured by SA-β-gal assay.
Therefore, in order to examine whether the ROS inhibitory effect may be extended to suppress HG-induced senescence, HG-induced senescenece eliminated by ANM is examined. In FIG. 4B, HNDFs are incubated with ANM (10 μM) or NAC (100 μM) in the presence or absence of HG (30 mM) for 72 h. Cellular senescence is determined by SA-β-gal assay. […] As is shown, cells are co-incubated with HG and ANM or NAC for 72 h.
Senescence-associated β-galactosidase (SA-β-gal) activity is determined in formaldehyde-fixed histochemical staining kit according to the manufacturer's instructions (Cell Signaling Technology, Danvers, Calif.). Briefly, cells are grown in 6-well plates at a density of 5×10^4 cells/well, and incubated with HG or test samples for 48 h (HUVECs) or 72 h (HNDFs). After incubation, cells are stained with SA-β-gal staining solution at pH 6.0 overnight and then the development of blue staining is observed and photographed under a bright-field microscope (Motic Electric Group, Xiamen, P.R. China).

Oc1ccc(C=Cc2cc(O)cc(O)c2)cc1 [RES, resveratrol, reference compound]
life span of C. elegans under normal condition (wild-type C. elegans): highly comparable | HG-induced SIRT-1 phosphorylation at Ser47 (SIRT-1, SIRT-3, SIRT-6): significantly attenuates | HO-1 expression in HUVECs in HG (HO-1 and NQO-1): significantly increase | SIRT-6 level (RT-PCR) [1]: remarkable increase | SA-β-gal activity, SIRT-1 siRNA transfected cells (HNDFs): remains partially elevated

Reference: patent publication US20180318199A1, “Pharmaceutical Composition Having Anti-Aging Properties against High-Glucose” (TAIWAN LEADER BIOTECH CORP., priority 2017, published 2018)
